pEC50: −log10 of the molar value.
target: hTREM2 (Homo sapiens, UniProt Q9NZC2); test: TREM2 activity by cellular Syk phosphorylation (AlphaScreen/AlphaLISA) in TREM2/DAP12-HEK cells, used for Examples 1-305; format: cell-based; design: expressed in transfected cells; conditions: HEK293 Cells
Method in brief: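 Single-cell-cloned HEK293 cells overexpressing TREM2 and DAP12, seeded 20 h, exposed to test articles (1% final DMSO) for 45 min at room temperature. Lysates read for phospho-Syk (Tyr525/526) vs total Syk by AlphaScreen. Signal normalised as percent of control between isotype IgG and 100 nM anti-TREM2 antibody; 4-parameter logistic fit.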

Chain of hTREM2 (Q9NZC2 19-230): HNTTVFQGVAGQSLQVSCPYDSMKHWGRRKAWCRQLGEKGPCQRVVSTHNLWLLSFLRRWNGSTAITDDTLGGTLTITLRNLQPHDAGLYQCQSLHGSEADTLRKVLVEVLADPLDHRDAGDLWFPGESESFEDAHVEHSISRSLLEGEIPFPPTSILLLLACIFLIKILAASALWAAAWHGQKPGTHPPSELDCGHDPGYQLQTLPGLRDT
Chain of hTREM2 (O43914 22-113 partner): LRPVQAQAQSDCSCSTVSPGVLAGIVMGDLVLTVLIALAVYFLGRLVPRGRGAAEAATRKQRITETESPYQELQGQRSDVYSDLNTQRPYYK

How did the pEC50 turn out when `Cc1nc2nc([C@H]3CCO[C@H](c4cnn(C)c4)C3)cc(-c3ccc(Cl)cc3F)c2nc1C` (single isomer, unassigned) [Example 186] was run?
The pEC50 was 5.52 to 6.30.

What about the “hTREM2 Emax” value of the same compound?
The value was “+++ (Emax>150 and ≤250)”.

How did the pEC50 turn out when `Cc1nc2nc(N3CCO[C@@H](c4cnn(C)c4)C3)nc(-c3ccc(F)cc3F)c2nc1C` [Example 31, 4-(2,4-difluorophenyl)-6,7-dimethyl-2-((2S)-2-(1-methyl-1H-pyrazol-4-yl)-4-morpholinyl)pteridine] was run?
The pEC50 was ≥ 7.30.

What about the “hTREM2 Emax” value of the same compound?
Its value is “+++ (Emax>150 and ≤250)”.

How did the pEC50 turn out when `Cc1cc2c(-c3ccc(Cl)cc3F)nc([C@@H]3CCO[C@H](c4cnn(C)c4)C3)nc2nc1C` (single isomer, unassigned) [Example 226] was run?
The pEC50 was 6.30 to 7.30.

And the “hTREM2 Emax” value?
Its value is “+++ (Emax>150 and ≤250)”.

`Cc1cc2c(-c3ccc(Cl)cc3F)cc(N3CCO[C@@H](c4cnn(C)c4)C3)nc2nc1C` [Example 157, 5-(4-chloro-2-fluorophenyl)-2,3-dimethyl-7-((2S)-2-(1-methyl-1H-pyrazol-4-yl)-4-morpholinyl)-1,8-naphthyridine] was tested. Which pEC50 did it give?
Its pEC50 is ≥ 7.30.

What about the “hTREM2 Emax” value of the same compound?
The value was “++++ (Emax>250)”.

What does the source list for `Cc1cc([C@H]2CN(c3cc4nc(C)c(C)nc4c([C@H]4C[C@H](C(F)(F)F)C4)n3)CCO2)ccn1` [Example 82]?
pEC50: 6.30 to 7.30; hTREM2 Emax: +++ (Emax>150 and ≤250)

`Cc1nc2nc([C@@H]3C[C@@H](C)O[C@@H](c4cnn(C)c4)C3)cc(-c3ccc(Cl)cc3F)c2nc1C` [Example 284, 8-(4-chloro-2-fluorophenyl)-2,3-dimethyl-6-((2R,4R,6R)-2-methyl-6-(1-methyl-1H-pyrazol-4-yl)tetrahydro-2H-pyran-4-yl)pyrido[2,3-b]pyrazine] was tested. Which pEC50 did it give?
Its pEC50 is 6.30 to 7.30.

What about the “hTREM2 Emax” value of the same compound?
The value was “+ (Emax>45 and ≤100)”.

With `Cc1cc([C@H]2CN(c3cc(-c4ccc(F)cc4F)c4cnc(C)nc4c3)CCO2)ccn1` [Example 154, 5-(2,4-difluorophenyl)-2-methyl-7-((2S)-2-(2-methyl-4-pyridinyl)-4-morpholinyl) quinazoline] as the compound, how does the pEC50 read?
Its pEC50 is 6.30 to 7.30.

What about the “hTREM2 Emax” value of the same compound?
The value was “++++ (Emax>250)”.

How did the pEC50 turn out when `Cc1cc2c(-c3ccc(Cl)cc3F)nc([C@@H]3CCO[C@@H](c4cnn(C)c4)C3)nc2nc1C` (single isomer, unassigned) [Example 225] was run?
The pEC50 was 6.30 to 7.30.

And the “hTREM2 Emax” value?
Its value is “+++ (Emax>150 and ≤250)”.

`Cc1nc2nc(N3CCO[C@@H](c4cnn(C)c4)C3)nc([C@@H]3C[C@H]3C(F)(F)F)c2nc1C` [Example 57, 6,7-dimethyl-2-((2S)-2-(1-methyl-1H-pyrazol-4-yl)-4-morpholinyl)-4-((1R,2R)-2-(trifluoromethyl)cyclopropyl)pteridine] was tested. Which pEC50 did it give?
Its pEC50 is 5.52 to 6.30.

And the “hTREM2 Emax” value?
The value was “++ (Emax>100 and ≤150)”.

From patent US11884675B2, “Heterocyclic compounds as triggering receptor expressed on myeloid cells 2 agonists and methods of use” (AMGEN INC., priority 2020, dated 2024)
